In patent US6534508B2, “Methods and compositions for treating infection using optically pure (S)-lomefloxacin” (priority 1991, dated 2003):
Converted amounts (≈) assume the structure as drawn. Like-named read-outs stand apart in the source and are kept apart here.

Columns and labels:
M. tuberculosis [1] = experiment: Broth microdilution MIC, M. tuberculosis isolates; assay type: cell-based; settings: 12 strains, 14 days incubation, 7H9 broth
M. chelonei C315 = experiment: Broth microdilution MIC, M. chelonei C315; assay type: cell-based; settings: for MIC50: as worded in conclusions, single strain
M. avium = experiment: Broth microdilution MIC, M. avium isolates; assay type: cell-based; settings: 11 strains, 7 days incubation, 7H9 broth
M. marinum ATCC 927 = experiment: Broth microdilution MIC, M. marinum ATCC 927; assay type: cell-based
[2] = human, in vivo, cited from earlier work
M. tuberculosis [3] = settings: 79 strains susceptible to conventional drug therapy; cited from earlier work
M. kansasii = experiment: Broth microdilution MIC, M. kansasii isolates; assay type: cell-based; settings: 10 strains, 7 days incubation, 7H9 broth
β-adrenergic = settings: L-form vs D-enantiomer; cited from earlier work
[4] = 1 strain, 4 days incubation, 7H9 broth
[5] = 1 strain, 7 days incubation at 30° C., 7H9 broth
[6] = as worded in conclusions, single strain

SMILES	Susceptibility, Range (M. tuberculosis [1]) [µg/mL]	Susceptibility, Range (M. avium) [µg/mL]	Susceptibility, MIC90 (M. kansasii) [µg/mL]	Susceptibility, Range (M. kansasii) [µg/mL]	Susceptibility, MIC50 (M. tuberculosis [1]) [µg/mL]	Susceptibility, MIC (M. chelonei C315; [4]) [µg/mL]	MIC50 (M. chelonei C315) [µg/mL]	Susceptibility, MIC50 (M. avium) [µg/mL]	Susceptibility, MIC90 (M. avium) [µg/mL]	Susceptibility, MIC (M. marinum ATCC 927; [5]) [µg/mL]	MIC (M. marinum ATCC 927; [6]) [µg/mL]	Susceptibility, MIC50 (M. kansasii) [µg/mL]	also measured
CCn1cc(C(=O)O)c(=O)c2cc(F)c(N3CCNC(C)C3)c(F)c21 (racemic) [LM, 1-ethyl-6,8-difluoro-1,4-dihydro-7-(3-methyl-lpiperazinyl)-4-oxo-3-quinolinecarboxylic acid]	0.5 to 2	4 to 16	2.0	1 to 2	–	–	–	–	–	–	–	–	MIC50 (M. tuberculosis [1]; Mycobacterium tuberculosis, 336 h, read-out: Susceptibility, MIC50): 1 µg/mL (≈ 2.85 µM); MIC90 (M. tuberculosis [1]; Mycobacterium tuberculosis, 336 h, read-out: Susceptibility, MIC90): 2 µg/mL (≈ 5.69 µM); MIC (M. chelonei C315; Mycobacteroides abscessus, C315, 96 h, 1 strain, 4 days incubation, 7H9 broth, read-out: Susceptibility, MIC): 4 µg/mL (≈ 11.4 µM); MIC50 (M. chelonei C315; Mycobacteroides abscessus, C315, read-out: MIC50): 4 µg/mL (≈ 11.4 µM); MIC50 (M. avium; Mycobacterium avium, 168 h, read-out: Susceptibility, MIC50): 8 µg/mL (≈ 22.8 µM); MIC90 (M. avium; Mycobacterium avium, 168 h, read-out: Susceptibility, MIC90): 16 µg/mL (≈ 45.5 µM); MIC (M. marinum ATCC 927; Mycobacterium marinum, ATCC927, 168 h, 1 strain, 7 days incubation at 30° C., 7H9 broth, read-out: Susceptibility, MIC): 4 µg/mL (≈ 11.4 µM); MIC50 (M. marinum ATCC 927; Mycobacterium marinum, ATCC927, as worded in conclusions, single strain): 4 µg/mL (≈ 11.4 µM); average elimination half-life ([2]; po): approximately 8 hours; prolongation of the half-life [2]: up to 24 hours; MIC50 (M. tuberculosis [3]): 0.96 µg/mL (≈ 2.73 µM); MIC90 (M. tuberculosis [3]): 1.02 µg/mL (≈ 2.9 µM); MIC50 (M. kansasii; Mycobacterium kansasii, 168 h, read-out: Susceptibility, MIC50): 1 µg/mL (≈ 2.85 µM); MIC90 (M. kansasii; Mycobacterium kansasii, 168 h, read-out: Susceptibility, MIC90): 2 µg/mL (≈ 5.69 µM)
CC(C)NC[C@H](O)COc1cccc2ccccc12 [L-form of propranolol, propranolol]	–	–	–	–	–	–	–	–	–	–	–	–	potency relative to the D-enantiomer (β-adrenergic): 100 times
CCn1cc(C(=O)O)c(=O)c2cc(F)c(N3CCN[C@H](C)C3)c(F)c21 [R-LM, (R)-lomefloxacin]	1 to 4	4 to 32	4	2 to 4	2	4	4.0 (≈ 11.4 µM)	16	32	4	4.0 (≈ 11.4 µM)	2	Susceptibility, MIC90 (M. tuberculosis [1]): 4 µg/mL; Susceptibility, MIC90 (M. kansasii; listed as (R)-LM): 4.0 µg/mL
CCn1cc(C(=O)O)c(=O)c2cc(F)c(N3CCN[C@@H](C)C3)c(F)c21 [S-LM, (S)-lomefloxacin]	0.25 to 1	2 to 16	2	1 to 2	0.5	2	2.0 (≈ 5.69 µM)	8	16	2	2.0 (≈ 5.69 µM)	1	Susceptibility, MIC90 (M. kansasii; listed as (S)-LM): 2.0 µg/mL
